Assay [1] deals with HIF1α target genes. Put plainly: Expression of HIF1α target genes (qRT-PCR) in SIRT3 WT and KO MEFs. The conditions noted are these: DMOG treatment. Format: cell-based, mouse. (In general: Quantitative PCR measures a nucleic acid by following its amplification.)
Experimental: (B) Fold induction of HIF1αtarget genes in response to hypoxia (n=6) measured by qRT-PCR. The ratio of hypoxic to normoxic gene expression is shown. (C) Fold induction of Glut1 and Hk2 in response to DMOG treatment was measured by qRT-PCR and the ratio of untreated to DMOG-treated gene expression is shown (n=6). […] Significance was assessed by one-way ANOVA. […] Error bars, ±SD.
(§1) A series of experiments were performed comparing the effects of hypoxia and DMOG treatment on SIRT3 WT and KO MEFs.
In assay [2] the test system is HIF1α. Put plainly: HIF1α protein level (immunoblot) in SIRT3 WT and KO MEFs. Format: cell-based, mouse. Particulars: 1 mM DMOG.
Experimental: Significance was assessed by one-way ANOVA. […] Error bars, ±SD. […] Error bars (except for growth curves), ±SEM. (*) p<0.05; (**) p<0.01.
as §1
Assay [3] relates to SIRT3 KO MEFs. Put plainly: Growth rates of SIRT3 WT and KO MEFs cultured with NAC. In kind it is cell-based, mouse. The conditions noted are these: media supplemented with 10 mM NAC. Here is the method: (A) Nuclear extracts from shNS and shSIRT3 HEK293T cells treated with or without 10 μM MG-132 for 1 hour or 1 mM DMOG for 4 hours as indicated were immunoblotted with antibodies specific to hydroxylated HIF1α (HIF—OH) or total HIF1α. (B) Fold induction of HIF1αtarget genes in response to hypoxia (n=6) measured by qRT-PCR. The ratio of hypoxic to normoxic gene expression is shown. (C) Fold induction of Glut1 and Hk2 in response to DMOG treatment was measured by qRT-PCR and the ratio of untreated to DMOG-treated gene expression is shown (n=6). (D) The increase in ROS production with hypoxia was calculated as the fold change in ROS in hypoxic cells relative to normoxic controls. […] Significance was assessed by one-way ANOVA. […] Error bars, ±SD. Protein carbonyls (I) and lipid peroxidation (J) were measured in brown adipose tissue (BAT) of SIRT3 WT and KO mice (n=7). […] Error bars (except for growth curves), ±SEM. […]
To confirm that the metabolite patterns reflected an increase in glycolysis, lactate produced and secreted from SIRT3 WT and KO MEFs (n=5) was measured and normalized to cell number. […] To test whether this apparent increase in aerobic glycolysis supported an increase in biomass and proliferation, growth rates of the MEFs were measured by seeding SIRT3 WT and KO MEFs in six-well plates at a density of 5,000 cells/well and counting the number of cells in triplicate every 24 hours. […]

The test system of assay [4] is CAMA1 cells. Put plainly: Glucose uptake and lactate production in CAMA1 control or SIRT3 overexpressing cells with rotenone or etomoxir. Format: cell-based, human. The conditions noted are these: 100 nM rotenone or 50 μg/ml etomoxir. As for the experimental part:
(A) Lactate production and (B) glucose consumption of MCF7, T47D and CAMA1 cells stably expressing empty vector or SIRT3 and cultured under hypoxia expressed as a ratio of empty-vector normoxic controls. (C) Relative glucose uptake and (D) relative lactate production in CAMA1 control or SIRT3 overexpressing cells incubated with or without 100 nM rotenone. (E) Glucose uptake and (F) lactate production in CAMA1 cell lines cultured in the presence or absence of 50 μg/ml etomoxir. (G) Immunoblots of CAMA1 cells stably expressing control vector or SIRT3-FLAG cultured at 1% oxygen for the indicated. (H) qRT-PCR of HIF1α target genes in CAMA1 cells cultured at 1% oxygen. (I) Induction of HIF1α target genes in response to hypoxia measured by qRT-PCR in CAMA1 cells. The ratio of normoxic to hypoxic gene expression in each cell line is shown. (J) Induction of HIF1α target genes in response to 1 mM DMOG treatment measured by qRT-PCR in CAMA1 cells. The ratio of untreated to DMOG-treated gene expression in each cell line is shown. Growth curves of CAMA1 cells (n=3) cultured in glucose (K) or galactose (L). Error bars, ±SD. (M) Schematic of the regulation of HIF1α and the Warburg effect by SIRT3. β-2-microglobulin was used as an endogenous control for qRT-PCR. Error bars (except for growth curves), ±SEM. (*) p<0.05; (**) p<0.01.
To examine the contribution of complex I activity or fatty acid oxidation on these phenotypes, glucose uptake and lactate production was measured in the presence of rotenone and etomoxir.
Metabolites were isolated by methanol extraction from cultured cells and analyzed by liquid chromatography-mass spectrometry (LC-MS). Lactate production was measured using the Lactate Reagent Kit (Trinity Biosciences). For immunoblotting, cell lysates and immunoprecipitations were probed with the following antibodies: Total OXPHOS antibody cocktail, complex II antibody cocktail, and OSCP (Mitosciences); Flag (Sigma); acetyl-lysine, LSD1 and hydroxylated HIF1α (Cell Signaling); SUCLA2 and GFP (Santa Cruz); GDH (USBiological); mouse HIF1α (Novus Biologicals) and human HIF 1 (BD Biosciences). The antibody recognizing murine SIRT3 was raised in rabbits against the (C) […] epitope conjugated to KLH at the added cysteine (Covance Research Products). SDH activity was determined by a colorometric spectrophotometric assay measuring the reduction of 2,6-dichlorophenolindophenol.

The test system of assay [5] is SIRT3 WT and KO MEFs. Put plainly: Glucose uptake and lactate secretion in MEFs with oxidation inhibitors. Format: cell-based, mouse. The conditions noted are these: WT cells; 100 nM rotenone or 50 μg/ml etomoxir, 24 hours. The source says:
(A) Schematic illustrating the metabolites that are increased or decreased in SIRT3 KO MEFs compared to SIRT3 WT MEFs (n=4), p<0.1. Metabolites in parentheses were not measured. PPP, pentose phosphate pathway. The nonoxidative and oxidative arms of the PPP are shown. Levels of glycolytic intermediates (B), TCA cycle intermediates (C), glucose (D), glucose-1-phosphate (E) and ribose-5-phosphate (F). Growth curves of SIRT3 WT and KO MEFs (n=3) cultured in media containing glucose (G) or galactose (H). Error bars, ±SD. (1-N) Glucose uptake and lactate production in SIRT3 WT and KO MEFs (n=6). (I) Relative glucose uptake and (J) lactate production in SIRT3 WT and KO MEFs. (K) Relative glucose uptake and (L) relative lactate production in SIRT3 WT and KO MEFs incubated with or without 100 nM rotenone. (M) Glucose uptake and (N) lactate production in SIRT3 WT and KO MEFs cultured in the presence or absence of 50 μg/ml etomoxir. Cells were treated with drugs for 24 hours before measuring glucose uptake and lactate. All error bars (except growth curves), ±SEM. […]
Metabolites were isolated by methanol extraction from cultured cells and analyzed by liquid chromatography-mass spectrometry (LC-MS). Lactate production was measured using the Lactate Reagent Kit (Trinity Biosciences). […] SDH activity was determined by a colorometric spectrophotometric assay measuring the reduction of 2,6-dichlorophenolindophenol.

Assay [6] concerns SDHA. Put plainly: In vitro deacetylation of SDHA in complex II immunoprecipitates. In kind it is biochemical, mouse. Particulars: with NAD, 2 hours at 37° C.

On to `COC(=O)CNC(=O)C(=O)OC` [DMOG, dimethyloxaloylglycine], for which the “expression of HIF1α target genes (Glut1, Hk2)” value in assay [1] is reported as “induce expression of HIF1α target genes”. The HIF1α stabilization entry in assay [2] is reported as “stabilize HIF1α”.
Regarding `CC(=O)N[C@@H](CS)C(=O)O` [NAC, N-acetylcysteine], in assay [3], the “proliferation (growth rate)” value was “rescued the increased proliferation of SIRT3 KO MEFs”.
Consider `CCOC(=O)[C@@]1(CCCCCCOc2ccc(Cl)cc2)CO1` [etomoxir], for which, in assay [4], the glucose uptake result is “increased” and the lactate production entry is listed as “increased”. In addition, the “glycolysis (glucose uptake and lactate production)” value in assay [5] is on record as “increased”.
With `C=C(C)[C@H]1Cc2c(ccc3c2O[C@@H]2COc4cc(OC)c(OC)cc4[C@@H]2C3=O)O1` [rotenone], in assay [4], the glucose uptake result is recorded as “increased” and the lactate production result is reported as “increased”. In addition, the “glycolysis (glucose uptake and lactate production)” value in assay [5] is “increased”.

B1: SIRT3-H248Y-His: catalytically inactive SIRT3 (protein, UniProt Q9NTG7 1-399, looked up, variant H248Y)
chain: MAFWGWRAAAALRLWGRVVERVEAGGGVGPFQACGCRLVLGGRDDVSAGLRGSHGARGEPLDPARPLQRPPRPEVPRAFRRQPRAAAPSFFFSSIKGGRRSISFSVGASSVVGSGGSSDKGKLSLQDVAELIRARACQRVVVMVGAGISTPSGIPDFRSPGSGLYSNLQQYDLPYPEAIFELPFFFHNPKPFFTLAKELYPGNYKPNVTHYFLRLLHDKGLLLRLYTQNIDGLERVSGIPASKLVEAYGTFASATCTVCQRPFPGEDIRADVMADRVPRCPVCTGVVKPDIVFFGEPLPQRFLLHVVDFPMADLLLILGTSLEVEPFASLTEAVRSSVPRLLINRDLVGPLAWHPRSRDVAQLGDVVHGVESLVELLGWTEEMRDLVQRETGKLDGPDK
modifications: His tag
In the case of B1, the “deacetylation of SDHA” value in assay [6] is “not”.

For the origin of these results see patent US20130171125A1, “Methods for the Regulation of Cellular Metabolism Through the Modulation of SIRT3 Activity” (National Institutes of Health (NIH), U.S. Dept. of Health …, priority 2010, published 2013).
